Reference: ChEMBL document CHEMBL3739316, “Novel orally active inhibitors of β-1,3-glucan synthesis derived from enfumafungin” (Bioorg Med Chem Lett, 2015)
≈ marks a conversion by molar mass, not a printed value.

Columns and labels:
Candida albicans [1] = assay: Antifungal activity against Candida albicans MY1055 after 24 hrs by liquid microdilution assay; format: functional; settings: MY1055, 24 h
Candida albicans [2] = assay: Antifungal activity against Candida albicans MY1055 after 24 hrs by liquid microdilution assay in presence of human serum; format: functional; settings: MY1055, 24 h
Candida albicans [3] = assay: Antifungal activity against Candida albicans MY1055 in DBA/2 mouse candidiasis model assessed as change in CFU per gram of kidney at 6.25 mg/kg, po bid after 4 days by Target Organ Kidney Assay relative to sham treated control; format: functional
Mus musculus [4] = assay: Dose normalized AUC in orally dosed mouse; format: ADME, organism-based; settings: in vivo, po
Candida albicans [5] = assay: Antifungal activity against Candida albicans MY1055 in DBA/2 mouse candidiasis model assessed as change in CFU per gram of kidney at 12.5 mg/kg, po bid after 4 days by Target Organ Kidney Assay relative to sham treated control; format: functional
[6] = Oral bioavailability in mouse; format: ADME, organism-based; settings: in vivo
Aspergillus fumigatus = assay: Antifungal activity against Aspergillus fumigatus MF5668 after 24 hrs by liquid microdilution assay; format: functional; settings: MF5668, 24 h, read-out: MEC
Beta-1,3-glucan synthase = target: T1, Beta-1,3-glucan synthase (Candida albicans, UniProt O13383); assay: Displacement of UDP-[3H]glucose from beta-1,3-glucan synthase in Candida albicans MY1055 microsomal membranes incubated for 2 hrs
T1 sequence (O13383 whole entry): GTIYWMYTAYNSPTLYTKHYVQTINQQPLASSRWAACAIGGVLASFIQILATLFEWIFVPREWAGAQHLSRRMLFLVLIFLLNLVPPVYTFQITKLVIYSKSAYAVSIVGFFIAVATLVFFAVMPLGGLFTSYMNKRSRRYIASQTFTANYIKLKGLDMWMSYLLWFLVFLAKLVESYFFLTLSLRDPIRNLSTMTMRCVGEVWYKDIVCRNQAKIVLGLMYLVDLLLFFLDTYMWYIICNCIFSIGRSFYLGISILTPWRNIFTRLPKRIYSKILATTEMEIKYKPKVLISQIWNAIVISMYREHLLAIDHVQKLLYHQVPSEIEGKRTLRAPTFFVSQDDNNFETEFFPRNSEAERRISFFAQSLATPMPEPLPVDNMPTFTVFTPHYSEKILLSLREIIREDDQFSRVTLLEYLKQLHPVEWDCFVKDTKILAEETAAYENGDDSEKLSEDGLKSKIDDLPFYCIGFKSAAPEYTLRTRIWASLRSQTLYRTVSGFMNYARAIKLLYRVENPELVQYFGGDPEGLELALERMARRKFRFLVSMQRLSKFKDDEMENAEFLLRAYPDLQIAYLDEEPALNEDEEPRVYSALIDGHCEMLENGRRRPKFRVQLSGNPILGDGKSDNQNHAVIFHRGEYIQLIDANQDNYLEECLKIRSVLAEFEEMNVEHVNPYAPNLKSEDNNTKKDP

Candida albicans [7] = assay: Antifungal activity against Candida albicans MY1055 in DBA/2 mouse candidiasis model assessed as change in CFU per gram of kidney at 25 mg/kg, po bid after 4 days by Target Organ Kidney Assay relative to sham treated control; format: functional
Mus musculus [8] = assay: Drug level in DBA/2J mouse treated with 13f at 10 mg/kg, po; format: ADME, organism-based; settings: in vivo
Rattus norvegicus = assay: Dose normalized AUC in orally dosed rat; format: ADME, organism-based; settings: in vivo, po
[9] = Oral bioavailability in rat; format: ADME, organism-based; settings: in vivo
Candida albicans [10] = assay: Antifungal activity against Candida albicans MY1055 in DBA/2N mouse candidiasis model assessed as mouse survival at 6.25 mg/kg, po bid after 4 days by Target Organ Kidney Assay relative to sham treated control; format: functional; settings: 96 h
Mus musculus [11] = assay: AUC (0 to 24 hrs) in DBA/2J mouse assessed as metabolite 13c at 10 mg/kg, po; format: ADME, organism-based; design: dose 10 mg/kg, time < 24 hr, route oral; settings: in vivo
Mus musculus [12] = assay: AUC (0 to 24 hrs) in DBA/2J mouse assessed as total metabolites at 10 mg/kg, po; format: ADME, organism-based; settings: in vivo
Candida albicans [13] = assay: Antifungal activity against Candida albicans MY1055 in DBA/2 mouse candidiasis model assessed as change in CFU per gram of kidney at 6.25 mg/kg, po bid after 7 days by Target Organ Kidney Assay relative to sham treated control; format: functional
Candida albicans [14] = assay: Antifungal activity against Candida albicans MY1055 in DBA/2N mouse candidiasis model assessed as reduction of fungal burden after 7 days; format: functional; settings: MY1055, 168 h
Candida albicans [15] = assay: Antifungal activity against Candida albicans MY1055 in DBA/2N mouse candidiasis model assessed as mouse survival at 12.5 mg/kg, po bid after 7 days by Target Organ Kidney Assay relative to sham treated control; format: functional; settings: 168 h
Candida albicans [16] = assay: Antifungal activity against Candida albicans MY1055 in DBA/2 mouse candidiasis model assessed as change in CFU per gram of kidney at 25 mg/kg, po bid after 7 days by Target Organ Kidney Assay relative to sham treated control; format: functional
Candida albicans [17] = assay: Antifungal activity against Candida albicans MY1055 in DBA/2N mouse candidiasis model assessed as mouse survival at 12.5 mg/kg, ip bid after 7 days by Target Organ Kidney Assay relative to sham treated control; format: functional; settings: 168 h
[18] = AUC (0 to 24 hrs) in DBA/2J mouse at 10 mg/kg, po; format: ADME, organism-based; design: dose 10 mg/kg, time < 24 hr, route oral; settings: in vivo
Candida albicans [19] = assay: Antifungal activity against Candida albicans MY1055 in DBA/2N mouse candidiasis model assessed as mouse survival at 25 mg/kg, po bid after 7 days by Target Organ Kidney Assay relative to sham treated control; format: functional; settings: 168 h
Candida albicans [20] = assay: Antifungal activity against Candida albicans MY1055 in DBA/2 mouse candidiasis model assessed as change in CFU per gram of kidney at 12.5 mg/kg, ip bid after 7 days by Target Organ Kidney Assay relative to sham treated control; format: functional
Candida albicans [21] = assay: Antifungal activity against Candida albicans MY1055 in DBA/2 mouse candidiasis model assessed as change in CFU per gram of kidney at 12.5 mg/kg, po bid after 7 days by Target Organ Kidney Assay relative to sham treated control; format: functional

Compound | MIC (Candida albicans [1]) [µg/mL] | MIC (Candida albicans [2]) [µg/mL] | Activity (Candida albicans [3]) [deltalog10CFU] | AUC/dose (Mus musculus [4]) [µM·kg·h/mg] | Activity (Candida albicans [5]) [deltalog10CFU] | bioavailability [6] [%] | minimal effective concentration (Aspergillus fumigatus) [µg/mL] | IC50 (Beta-1,3-glucan synthase) [nM] | Activity (Candida albicans [7]) [deltalog10CFU] | survival at 6.25 mg/kg (Candida albicans [10]) [%] | AUC (Mus musculus [11]) [µM·h] | Drug uptake (Mus musculus [12]) [%] | Activity (Candida albicans [13]) [deltalog10CFU] | ED99 (Candida albicans [14]) [mg/kg] | survival at 12.5 mg/kg (Candida albicans [15]) [%] | Activity (Candida albicans [16]) [deltalog10CFU] | survival at 12.5 mg/kg (Candida albicans [17]) [%] | AUC(0-t) at 24 h [18] [µM·h] | survival at 25 mg/kg (Candida albicans [19]) [%] | Activity (Candida albicans [20]) [deltalog10CFU] | further results
CC(C)[C@@H](C)[C@@]1(C)CC[C@]2(C)[C@H]3CC[C@H]4C5(C)COC[C@@]4(C[C@@H](n4nnc(N)n4)[C@@H]5OC[C@](C)(N)C(C)C)C3=CC[C@@]2(C)[C@@H]1C(=O)O | < 0.03 | 2 | -0.1 | 0.14 | -0.3 | 14 | < 0.03 | 3.05 | -2.2 |  |  |  |  |  |  |  |  |  |  |  | Drug metabolism (Mus musculus [8]): metabolite_detected
CC(=O)O[C@@H]1C[C@@]23COCC(C)([C@H]1O[C@@H]1O[C@H](CO)[C@@H](O)[C@H](O)[C@H]1O)[C@@H]2CC[C@H]1C3=CC[C@@]2(C)[C@H](C(=O)O)[C@@](C)([C@H](C)C(C)C)CC[C@]12C | 0.25 (≈ 0.361 µM) | 8 |  |  |  |  | < 0.03 | 86.6 |  |  |  |  |  |  |  |  |  |  |  |  | AUC/dose (Rattus norvegicus): 0.01 µM·kg·h/mg; bioavailability [9]: 1%
CCCN[C@@](C)(CO[C@H]1[C@H](n2nnc(N)n2)C[C@@]23COCC1(C)[C@@H]2CC[C@H]1C3=CC[C@@]2(C)[C@H](C(=O)O)[C@@](C)([C@H](C)C(C)C)CC[C@]12C)C(C)C | 0.06 (≈ 0.0861 µM) | 16 | -1.1 | 0.35 | -2.4 | 25 | < 0.03 | 11.5 | -3 | 40 | 0.36 | 10.3 | -2.04 | 10 | 100 | -2.9 | 100 | 3.13 | 100 | -2.98 | Activity (Candida albicans [21]): -1.53 deltalog10CFU
CCN[C@@](C)(CO[C@H]1[C@H](n2nnc(N)n2)C[C@@]23COCC1(C)[C@@H]2CC[C@H]1C3=CC[C@@]2(C)[C@H](C(=O)O)[C@@](C)([C@H](C)C(C)C)CC[C@]12C)C(C)C | 0.06 (≈ 0.0878 µM) | 8 | -0.7 | 0.44 | -2.6 | 11 | < 0.03 | 7.32 | -2.8 | 20 | 0.29 | 6.4 | 0.72 | 13 | 60 | -2.8 | 100 | 4.22 | 100 | -3.26 | Activity (Candida albicans [21]): -2.54 deltalog10CFU
CN[C@@](C)(CO[C@H]1[C@H](n2nnc(N)n2)C[C@@]23COCC1(C)[C@@H]2CC[C@H]1C3=CC[C@@]2(C)[C@H](C(=O)O)[C@@](C)([C@H](C)C(C)C)CC[C@]12C)C(C)C | < 0.03 | 4 | -1.5 | 0.12 | -1.9 | 9 | < 0.03 | 2.99 | -2.5 | 20 | 0.005 | 0.5 | -0.61 | 19 | 20 | -2.54 | 100 | 1.06 | 100 | -3.89 | Activity (Candida albicans [21]): 0.89 deltalog10CFU; Drug metabolism (Mus musculus [8]): metabolite_detected
